Measured values: ChEMBL document CHEMBL6092187, “Enantiomerically Pure Indazole Bioisosteres of Ifenprodil and Ro 25-6981 as Negative Allosteric Modulators of NMDA Receptors with the GluN2B Subunit” (J Med Chem, 2024)

Columns and labels:
[1] = molecular target: Sigma non-opioid intracellular receptor 1 (Cavia porcellus, UniProt Q60492); experiment: Displacement of [3H](+)-pentazocine from sigma1 receptor in guniea pig brain membrane assessed as inhibition constant by competitive binding assay; format: cell membranes
[2] = molecular target: T1, Sigma intracellular receptor 2 (Rattus norvegicus, UniProt Q5U3Y7); experiment: Displacement of [3H](+)-pentazocine from sigma2 receptor in rat liver membrane assessed as inhibition constant by competitive binding assay; format: cell membranes
T1 sequence (Q5U3Y7 whole entry): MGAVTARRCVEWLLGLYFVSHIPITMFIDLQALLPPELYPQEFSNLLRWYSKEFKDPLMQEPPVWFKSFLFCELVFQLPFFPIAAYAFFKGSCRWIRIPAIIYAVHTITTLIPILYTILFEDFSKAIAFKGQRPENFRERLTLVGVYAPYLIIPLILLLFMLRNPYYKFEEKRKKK

Albumin = Albumin (Homo sapiens, UniProt P02768); experiment: Binding affinity to human serum albumin measured after 60 mins by high performance affinity chromatography based LC-MS analysis; settings: 1 h
[3] = Metabolic stability in human liver microsomes assessed as half-life at 10 uM measured after 120 mins by LC-MS/MS analysis; format: ADME, Microsome
[4] = molecular target: Glutamate receptor ionotropic, NMDA 2B (Homo sapiens, UniProt Q13224); experiment: Displacement of [3H]ifenprodil from human GluN2B receptor extracted from mouse LTK- cell membrane assessed as inhibition constant by competitive binding assay; format: cell membranes
[5] = mouse, microsomes, 1.5 h
Description: Drug metabolism in mouse liver microsomes assessed as glucuronic acid conjugates formation measured after 90 mins in presence of UDP-GA by LC-MS analysis

physchem = settings: n-octanol/3-morpholinopropanesulfonic acid (MOPS) buffer, pH 7.4
in vitro = settings: mouse, liver microsomes
Description: Metabolic stability in mouse liver microsomes assessed as parent compound remaining measured after 90 mins in presence of NADPH by HPLC analysis

Albumin, sequence (P02768 whole entry): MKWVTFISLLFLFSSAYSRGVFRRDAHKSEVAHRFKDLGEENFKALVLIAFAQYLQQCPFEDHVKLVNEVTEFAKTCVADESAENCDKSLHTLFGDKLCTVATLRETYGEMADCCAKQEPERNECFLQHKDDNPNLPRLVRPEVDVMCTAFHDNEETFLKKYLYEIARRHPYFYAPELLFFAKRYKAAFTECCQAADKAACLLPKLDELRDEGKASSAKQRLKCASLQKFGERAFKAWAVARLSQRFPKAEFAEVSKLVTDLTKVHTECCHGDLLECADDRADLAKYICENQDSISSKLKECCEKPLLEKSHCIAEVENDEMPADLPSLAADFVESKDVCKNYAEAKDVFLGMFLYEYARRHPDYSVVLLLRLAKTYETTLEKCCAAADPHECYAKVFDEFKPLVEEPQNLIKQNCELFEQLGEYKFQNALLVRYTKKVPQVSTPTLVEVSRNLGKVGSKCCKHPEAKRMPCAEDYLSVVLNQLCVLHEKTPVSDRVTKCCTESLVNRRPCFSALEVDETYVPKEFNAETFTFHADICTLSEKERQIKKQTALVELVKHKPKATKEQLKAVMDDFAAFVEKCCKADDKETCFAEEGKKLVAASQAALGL
Sigma non-opioid intracellular receptor 1, sequence (Q60492 whole entry): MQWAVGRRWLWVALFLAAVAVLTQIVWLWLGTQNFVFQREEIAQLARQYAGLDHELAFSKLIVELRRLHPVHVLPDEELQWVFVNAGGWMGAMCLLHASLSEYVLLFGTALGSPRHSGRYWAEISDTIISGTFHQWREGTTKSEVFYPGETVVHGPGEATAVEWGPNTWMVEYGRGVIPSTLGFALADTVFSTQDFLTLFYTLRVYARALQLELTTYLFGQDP
Glutamate receptor ionotropic, NMDA 2B, sequence (Q13224 whole entry): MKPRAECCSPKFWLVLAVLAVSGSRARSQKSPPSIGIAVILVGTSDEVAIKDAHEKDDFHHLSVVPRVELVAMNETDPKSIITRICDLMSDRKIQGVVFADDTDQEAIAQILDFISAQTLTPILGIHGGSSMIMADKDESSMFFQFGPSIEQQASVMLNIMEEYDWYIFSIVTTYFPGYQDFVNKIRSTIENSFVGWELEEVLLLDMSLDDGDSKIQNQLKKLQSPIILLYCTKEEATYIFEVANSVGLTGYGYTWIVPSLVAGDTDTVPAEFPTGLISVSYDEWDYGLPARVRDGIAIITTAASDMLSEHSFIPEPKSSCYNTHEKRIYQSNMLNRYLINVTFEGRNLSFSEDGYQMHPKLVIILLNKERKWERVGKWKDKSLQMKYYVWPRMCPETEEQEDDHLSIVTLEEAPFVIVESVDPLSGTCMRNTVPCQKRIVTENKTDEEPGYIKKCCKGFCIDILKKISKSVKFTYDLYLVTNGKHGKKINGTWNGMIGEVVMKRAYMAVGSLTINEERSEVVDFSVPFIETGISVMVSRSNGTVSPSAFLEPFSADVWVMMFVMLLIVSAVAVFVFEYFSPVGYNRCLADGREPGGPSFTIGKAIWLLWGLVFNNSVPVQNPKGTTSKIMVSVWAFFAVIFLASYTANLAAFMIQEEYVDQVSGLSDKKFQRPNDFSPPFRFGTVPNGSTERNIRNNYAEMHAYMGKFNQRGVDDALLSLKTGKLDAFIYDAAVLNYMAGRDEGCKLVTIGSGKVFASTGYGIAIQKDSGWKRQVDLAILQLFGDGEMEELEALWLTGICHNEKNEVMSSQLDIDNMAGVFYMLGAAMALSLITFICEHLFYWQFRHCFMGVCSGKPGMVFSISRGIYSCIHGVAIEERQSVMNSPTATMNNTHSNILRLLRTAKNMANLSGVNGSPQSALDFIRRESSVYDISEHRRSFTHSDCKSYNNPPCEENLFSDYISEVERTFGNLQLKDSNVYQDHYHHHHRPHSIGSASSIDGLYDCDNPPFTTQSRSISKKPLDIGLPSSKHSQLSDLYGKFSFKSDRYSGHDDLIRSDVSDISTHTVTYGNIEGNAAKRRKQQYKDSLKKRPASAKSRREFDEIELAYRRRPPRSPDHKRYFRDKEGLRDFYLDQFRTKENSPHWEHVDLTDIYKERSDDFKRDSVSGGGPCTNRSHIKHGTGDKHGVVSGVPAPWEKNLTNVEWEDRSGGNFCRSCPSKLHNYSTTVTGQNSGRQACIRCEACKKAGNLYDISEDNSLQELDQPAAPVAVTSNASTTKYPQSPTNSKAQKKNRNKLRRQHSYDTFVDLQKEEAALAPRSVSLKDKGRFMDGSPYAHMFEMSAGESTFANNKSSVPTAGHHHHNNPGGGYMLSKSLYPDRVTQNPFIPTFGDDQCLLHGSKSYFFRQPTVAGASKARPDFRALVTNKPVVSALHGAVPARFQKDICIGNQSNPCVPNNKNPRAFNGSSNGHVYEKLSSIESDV

For `C[C@H]([C@@H](O)c1ccc2[nH]ncc2c1)N1CCC(Cc2ccccc2)CC1`, the Ki [1] was 0.313 µM, the Ki [2] was 0.263 µM and the Activity (Albumin) was 92%.
`C[C@H]([C@H](O)c1ccc2[nH]ncc2c1)N1CCC(Cc2ccccc2)CC1` (stereo in doubt; 11c) showed a Ki [1] of 0.672 µM, a Ki [2] of 0.112 µM and an Activity (Albumin) of 90%.
Compound `C[C@@H](CN1CCC(Cc2ccccc2)CC1)[C@@H](O)c1ccc2[nH]ncc2c1` has a Ki [1] of 0.021 µM, a Ki [2] of 0.209 µM and an Activity (Albumin) of 89%.
For `C[C@@H]([C@H](O)c1ccc2[nH]ncc2c1)N1CCC(Cc2ccccc2)CC1` (stereo in doubt; 11ab), the Ki [1] was 0.038 µM and the Ki [2] was 0.245 µM.
`C[C@@H](CN1CCC(Cc2ccccc2)CC1)[C@@H](O)c1ccc(O)cc1` gave a half-life at 10 µM [3] of 23.7 min, a Ki [4] of 0.135 µM and an Activity (Albumin) of 82%. The Drug metabolism [5] was “metabolite_detected”, the logD (physchem) was 1.9 and the remaining at 1.5 h (in vitro) was 5%.
For `C[C@@H]([C@@H](O)c1ccc2[nH]ncc2c1)N1CCC(Cc2ccccc2)CC1`, the Ki [1] was 0.523 µM, the Ki [2] was 0.556 µM and the Activity (Albumin) was 91%.
`C[C@@H](CN1CCC(Cc2ccccc2)CC1)[C@H](O)c1ccc2[nH]ncc2c1` (stereo in doubt; 10c) gave a Ki [1] of 0.046 µM, a Ki [2] of 0.269 µM and an Activity (Albumin) of 93%.
Compound `C[C@H](CN1CCC(Cc2ccccc2)CC1)[C@H](O)c1ccc2[nH]ncc2c1` (stereo in doubt; 10ab) has a Ki [1] of 0.056 µM and a Ki [2] of 0.388 µM.
`C[C@H]([C@H](O)c1ccc2[nH]ncc2c1)N1CCC(Cc2ccccc2)CC1` (stereo in doubt; 11cd) showed a Ki [1] of 0.034 µM and a Ki [2] of 0.019 µM.
In the case of `C[C@H](CN1CCC(Cc2ccccc2)CC1)[C@@H](O)c1ccc2[nH]ncc2c1`, the Ki [1] is reported as 0.043 µM, the Ki [2] is reported as 0.042 µM and the Activity (Albumin) is reported as 93%.
With `C[C@H](CN1CCC(Cc2ccccc2)CC1)[C@H](O)c1ccc2[nH]ncc2c1` (stereo in doubt; 10a) the Ki [1] was 0.024 µM, the Ki [2] was 0.111 µM and the Activity (Albumin) was 89%.
With `CC(C(O)c1ccc(O)cc1)N1CCC(Cc2ccccc2)CC1` (configuration not stated) [IFENPRODIL] the Activity (Albumin) was 84%, the Drug metabolism [5] was “metabolite_detected” and the logD (physchem) was 1.43. It also gave a remaining at 1.5 h (in vitro) of 91.4%.
`C[C@@H](CN1CCC(Cc2ccccc2)CC1)[C@H](O)c1ccc2[nH]ncc2c1` (stereo in doubt; 10cd) gave a Ki [1] of 0.044 µM and a Ki [2] of 0.057 µM.
For `C[C@@H]([C@H](O)c1ccc2[nH]ncc2c1)N1CCC(Cc2ccccc2)CC1` (stereo in doubt; 11a), the Ki [1] was 0.096 µM, the Ki [2] was 0.033 µM and the Activity (Albumin) was 92%.
